Source: article PMC4432651, “Dynamic interplay between catalytic and lectin domains of GalNAc-transferases modulates protein O-glycosylation” (Nature Communications, 2015)
Where a SMILES comes first, the peptide text is derived from it. The star is where a group is joined. αGalNAc = CC(=O)N[C@@H]1[C@@H](O)[C@@H](O)[C@@H](CO)O[C@@H]1*

Target: T1, GalNAc-T2 (Homo sapiens, UniProt Q10471)
T1 construct: made in house
Assay: Time-lapse AFM of single GalNAc-T2 molecules with ligands
Settings: GalNAc-T2 2.0 nM on mica, PBS pH 7.4, 20 °C
Procedure: AFM measurements were performed using a MultiMode 8 AFM system (Bruker). […] Additional details are in Supplementary Methods. […]
simulations were performed with the acceptor amino acid – UDPGalNAc distance and the RMSD of the Cα peptide carbon atoms as collective variables.
The values of the height and width of the Gaussian-like biasing potential were selected as 1.0 kcal·mol -1 and 0.25 Å, respectively. A temperature window of ΔT = 25000 K for the well-tempered algorithm was used together with a deposition time of 1 ps. The simulation was continued until the system completely explored the free energy landscape several times which, in terms of the simulation time, corresponds to approximately 100 ns for each metadynamics run.
Atomic Force Microscopy Imaging
In Tapping Mode image operation the cantilever driven by a piezoelectric actuator vibrates near its resonance frequency. Upon approaching the sample, the tip briefly touches the surface at the bottom of each swing, resulting in a decrease in oscillation amplitude. […]
AFM scanning requires the sample be immobilized on a nanoflat surface not to be swept away. […] The concentration of the protein incubated on the mica sheets was suitable to get isolated features that could be analyzed individually. […]
GalNAc-T2 presents a net positive charge at the working pH conditions due to its theoretical isoelectric point of 8.3. The immobilization of enzymes on mica was previously evaluated observing clearly they preserve the enzymatic activity5.
To determine how the ligands affect the conformational dynamics of GalNAc-T2, the enzyme was also incubated with ligands for 10 min under mild stirring at room temperature. […] AFM images were further analyzed by using the WSxM software6. […] At least 10 images of 10 different areas of 500 nm2 were analyzed for every sample and environment. Furthermore, each feature or associate was analyzed in detail with the zoom function of the WSxM program, performed without losing image information and or the discarding of artifacts. […]

T1 sequence (Q10471 75-571 limits assumed): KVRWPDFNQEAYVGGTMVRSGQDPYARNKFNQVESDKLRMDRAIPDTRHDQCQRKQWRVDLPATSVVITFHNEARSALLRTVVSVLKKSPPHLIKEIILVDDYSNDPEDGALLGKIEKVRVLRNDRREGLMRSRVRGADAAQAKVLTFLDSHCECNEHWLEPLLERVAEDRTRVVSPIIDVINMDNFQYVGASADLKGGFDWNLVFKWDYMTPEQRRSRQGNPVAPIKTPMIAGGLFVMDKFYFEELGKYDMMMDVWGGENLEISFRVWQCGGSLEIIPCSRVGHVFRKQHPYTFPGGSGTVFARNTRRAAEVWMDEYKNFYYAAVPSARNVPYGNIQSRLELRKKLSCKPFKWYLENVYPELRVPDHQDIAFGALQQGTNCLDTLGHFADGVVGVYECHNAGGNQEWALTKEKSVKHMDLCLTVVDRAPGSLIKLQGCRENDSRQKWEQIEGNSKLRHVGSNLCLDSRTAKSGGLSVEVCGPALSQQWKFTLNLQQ

Structure (SMILES)	conformational states of GalNAc-T2 observed (peptide alone or in combination with UDP/Mn+2, peptides 10.0 nM)	conformational states of GalNAc-T2 observed (in the presence of Mn+2, UDP, UDP-GalNAc and MnCl2 20.0 nM)
CC(=O)NCC(=O)N[C@H](C(=O)N[C@H](C(=O)N1CCC[C@H]1C(=O)N[C@@H](CO)C(=O)N1CCC[C@H]1C(=O)N[C@H](C(=O)N1CCC[C@H]1C(=O)N[C@H](C(=O)N[C@H](C(=O)N[C@@H](CO)C(=O)N[C@H](C(=O)N[C@H](C(=O)N[C@@H](CO)C(=O)N[C@@H](C)C(N)=O)[C@@H](C)O[C@H]1O[C@H](CO)[C@H](O)[C@H](O)[C@H]1NC(C)=O)[C@@H](C)O)[C@@H](C)O)[C@@H](C)O)C(C)C)[C@@H](C)O)[C@@H](C)O [MUC5AC-13] (Ac-GTTPSPVPTTSTT(αGalNAc)SA-NH2; N-terminus assumed)	three different conformational states are present	
O=c1ccn([C@@H]2O[C@H](COP(=O)(O)OP(=O)(O)O)[C@@H](O)[C@H]2O)c(=O)[nH]1 [UDP, uridine diphosphate, reference compound]		either the very compact or the compact structure
